# Test results as given in publication PMC6199744, “Development of Chemical Proteomics for the Folateome and Analysis of the Kinetoplastid Folateome” (ACS Infectious Diseases, 2018).
# Where two headings read alike, the source gives them in different places.
# How the values were obtained:
# [1] = test system: SUCCINYL-COA SYNTHETASE ALPHA SUBUNIT, PUTATIVE (Tb427.03.2230); assay: Multitargeted bead mixture competition; assay type: binding; conditions: free ligand 100 μM, T. brucei lysate
# [2] = test system: TB427.04.1870; assay: Multitargeted bead mixture competition; assay type: binding; conditions: free ligand 100 μM, T. brucei lysate
# [3] = test system: TB927.8.6760; assay: Multitargeted bead mixture competition; assay type: binding; conditions: free ligand 100 μM, T. brucei lysate
# [4] = test system: HYPOTHETICAL PROTEIN, CONSERVED (TB427.05.3680); assay: Multitargeted bead mixture competition; assay type: binding; conditions: free ligand 100 μM, T. brucei lysate
# [5] = test system: HYPOTHETICAL PROTEIN, CONSERVED (TB427.03.2670); assay: Multitargeted bead mixture competition; assay type: binding; conditions: free ligand 100 μM, T. brucei lysate
# [6] = test system: TB09.211.1690; assay: Multitargeted bead mixture competition; assay type: binding; conditions: free ligand 100 μM, T. brucei lysate
# [7] = target: T1, HeLa cell extract proteins (Homo sapiens, UniProt P14314); assay type: binding; conditions: HeLa; protein PRKCSH (CDNA FLJ59211, HIGHLY SIMILAR TO GLUCOSIDASE 2 SUBUNIT BETA.)
# T1 construct: endogenous in cells; host or cells: HeLa cell extract
# T1 sequence (P14314 15-528): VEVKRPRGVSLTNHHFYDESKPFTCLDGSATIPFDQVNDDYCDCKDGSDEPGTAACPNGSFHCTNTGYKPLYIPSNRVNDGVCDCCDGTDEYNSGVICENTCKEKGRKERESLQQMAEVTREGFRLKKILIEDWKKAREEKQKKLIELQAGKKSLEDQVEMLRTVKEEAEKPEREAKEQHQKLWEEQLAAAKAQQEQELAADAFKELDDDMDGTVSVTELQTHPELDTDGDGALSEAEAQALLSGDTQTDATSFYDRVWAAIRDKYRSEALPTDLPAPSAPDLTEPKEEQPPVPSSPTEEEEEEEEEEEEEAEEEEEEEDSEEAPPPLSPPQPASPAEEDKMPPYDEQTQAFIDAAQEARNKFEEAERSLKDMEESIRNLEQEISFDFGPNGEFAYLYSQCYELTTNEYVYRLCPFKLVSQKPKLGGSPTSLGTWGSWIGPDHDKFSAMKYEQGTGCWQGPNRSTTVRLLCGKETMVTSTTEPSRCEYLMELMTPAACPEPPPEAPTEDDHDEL
# [8] = target: T2, HeLa cell extract proteins (Homo sapiens, UniProt P43358); assay type: binding; conditions: protein MAGEA4; HeLa
# T2 construct: endogenous in cells; host or cells: HeLa cell extract
# T2 sequence (P43358 1-317): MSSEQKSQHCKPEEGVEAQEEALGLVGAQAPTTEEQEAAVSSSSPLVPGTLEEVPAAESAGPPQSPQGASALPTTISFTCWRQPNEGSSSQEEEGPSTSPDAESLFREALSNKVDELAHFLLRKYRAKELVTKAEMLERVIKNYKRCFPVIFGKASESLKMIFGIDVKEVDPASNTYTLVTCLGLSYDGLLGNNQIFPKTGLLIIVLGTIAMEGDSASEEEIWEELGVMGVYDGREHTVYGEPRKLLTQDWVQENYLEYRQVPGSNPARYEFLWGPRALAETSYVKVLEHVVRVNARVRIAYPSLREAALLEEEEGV
# [9] = target: T3, HeLa cell extract proteins (Homo sapiens, UniProt P46976); assay type: binding; conditions: protein GYG1; HeLa
# T3 construct: endogenous in cells; host or cells: HeLa cell extract
# T3 sequence (P46976 1-350): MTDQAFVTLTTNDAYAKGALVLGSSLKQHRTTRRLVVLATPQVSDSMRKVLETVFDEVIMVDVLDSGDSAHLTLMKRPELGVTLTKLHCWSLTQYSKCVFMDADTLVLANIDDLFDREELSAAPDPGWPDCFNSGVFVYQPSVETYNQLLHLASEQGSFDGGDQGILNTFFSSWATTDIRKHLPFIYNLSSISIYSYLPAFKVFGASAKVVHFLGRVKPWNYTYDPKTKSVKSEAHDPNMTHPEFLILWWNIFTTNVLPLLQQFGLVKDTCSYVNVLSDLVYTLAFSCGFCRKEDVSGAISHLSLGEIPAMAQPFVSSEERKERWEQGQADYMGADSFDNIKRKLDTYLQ
# [10] = test system: PROTEIN KINASE, PUTATIVE (Tb427.03.1570); assay: Multitargeted bead mixture competition; assay type: binding; conditions: free ligand 100 μM, T. brucei lysate
# [11] = test system: T. brucei; set-up: method as in ref 5 (SI); conditions: ref 5 (SI); read-out: EC50 against T. brucei, in vitro cell growth; cited from earlier work
# [12] = test system: PHOSPHATIDYLINOSITOL-4-PHOSPHATE 5-KINASE, PUTATIV (TB427.10.3890); assay: Multitargeted bead mixture competition; assay type: binding; conditions: free ligand 100 μM, T. brucei lysate
# [13] = test system: ACETYLTRANSFERASE, PUTATIVE (Tb427.08.3310); assay: Multitargeted bead mixture competition; assay type: binding; conditions: free ligand 100 μM, T. brucei lysate
# [14] = test system: TB11.03.0290; assay: Multitargeted bead mixture competition; assay type: binding, T. brucei; conditions: for fold change - vehicle control: protein TB11.03.0290 PROTEIN KINASE, PUTATIVE
# [15] = test system: PEPTIDYL-PROLYL CIS-TRANS ISOMERASE (CYCLOPHILIN- (TB427TMP.211.1350)); assay: Multitargeted bead mixture competition; assay type: binding; conditions: free ligand 100 μM, T. brucei lysate
# [16] = test system: HYPOTHETICAL PROTEIN, CONSERVED (Tb427.10.6100); assay: Multitargeted bead mixture competition; assay type: binding; conditions: free ligand 100 μM, T. brucei lysate
# [17] = test system: TB927.7.1340; assay: Multitargeted bead mixture competition; assay type: binding; conditions: free ligand 100 μM, T. brucei lysate
# [18] = test system: MTHF complex (DHCH protein in humans); assay: Multitargeted bead mixture competition, HeLa cell extract; assay type: binding, human; conditions: bead mixture; HeLa cell extract
# [19] = target: T4, HeLa cell extract proteins (Homo sapiens, UniProt P52888); assay type: binding
# T4 construct: endogenous in cells; host or cells: HeLa cell extract
# [20] = target: TbDHFR; conditions: direct enzyme assays; cited from earlier work
# [21] = target: TbTS; conditions: direct enzyme assays; read-out: TbTS Ki; cited from earlier work
# T4 sequence (P52888 whole entry): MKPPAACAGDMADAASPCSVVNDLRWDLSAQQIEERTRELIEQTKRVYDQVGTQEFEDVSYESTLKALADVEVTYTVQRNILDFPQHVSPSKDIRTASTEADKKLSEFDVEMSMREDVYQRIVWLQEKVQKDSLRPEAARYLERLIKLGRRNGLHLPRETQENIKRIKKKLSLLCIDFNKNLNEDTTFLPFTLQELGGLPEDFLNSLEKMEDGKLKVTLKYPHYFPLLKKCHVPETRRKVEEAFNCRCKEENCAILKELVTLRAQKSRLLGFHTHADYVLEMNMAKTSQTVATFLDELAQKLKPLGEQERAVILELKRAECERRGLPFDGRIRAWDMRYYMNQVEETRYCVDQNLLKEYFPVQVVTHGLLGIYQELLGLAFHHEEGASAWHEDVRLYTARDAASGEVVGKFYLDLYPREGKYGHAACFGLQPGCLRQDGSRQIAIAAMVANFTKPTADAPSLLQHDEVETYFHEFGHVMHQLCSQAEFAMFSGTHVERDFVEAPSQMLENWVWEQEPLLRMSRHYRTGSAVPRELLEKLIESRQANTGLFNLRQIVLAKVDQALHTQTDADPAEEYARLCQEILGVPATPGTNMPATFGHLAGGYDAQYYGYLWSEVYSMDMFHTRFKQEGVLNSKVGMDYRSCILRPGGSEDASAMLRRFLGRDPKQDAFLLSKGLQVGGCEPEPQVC
compound,measurement,setting,value
Nc1nc2cccc(-c3ccccc3)c2n1Cc1ccc(Cl)c(Cl)c1 [compound 3],percentage of competition from bead binding,[1],10%
same,percentage of competition from bead binding,[2],47%
same,percentage of competition from bead binding,[3],20%
same,percentage of competition from bead binding,[4],68%
same,percentage of competition from bead binding,[5],62%
same,percentage of competition from bead binding,[6],39%
same,fold changes relative to vehicle control,[7],1.26 fold
same,fold changes relative to vehicle control,[8],0.98
same,fold changes relative to vehicle control,[9],0.95
same,percentage of competition from bead binding,[10],-2%
same,EC50,[11],10 µM
same,percentage of competition from bead binding,[12],-23%
same,percentage of competition from bead binding,[13],37%
same,percentage of competition from bead binding,"[14]; multitargeted bead mixture, free ligand 100 μM, T. brucei lysate, TB11.03.0290",10%
same,fold change - vehicle control,[14],1.06
same,percentage of competition from bead binding,[15],38%
same,percentage of competition from bead binding,[16],67%
same,percentage of competition from bead binding,[17],40%
CCCCCCOc1ccc(Cc2cnc(N)nc2N)cc1 [compound 1],"inhibition, all subunits of the MTHF complex",[18],> 70%
same,fold changes relative to vehicle control,[7],1.76 fold
same,fold changes relative to vehicle control,[8],0.95
same,fold changes relative to vehicle control,[9],1.09
same,fold change - vehicle control,[14],0.91
NCCCNc1ccc(C(=O)NC(CCC(=O)O)C(=O)O)cc1 (stereo not drawn) [compound 7],fold changes relative to vehicle control,"[19]; protein THOP1, HeLa",0.83
CCCCCCOc1cccc(Cc2cnc(N)nc2N)c1 [compound 2],fold changes relative to vehicle control,[7],2.8 fold
same,fold changes relative to vehicle control,[8],1.19
same,fold changes relative to vehicle control,[9],1.31
same,fold change - vehicle control,[14],0.99
NCCOCCOCC(=O)Nc1nc2ncc(CNc3ccc(C(=O)NC(CCC(=O)O)C(=O)O)cc3)nc2c(=O)[nH]1 (stereo not drawn) [compound 6],fold changes relative to vehicle control,"[19]; protein THOP1, HeLa",1.16
"Nc1nc2[nH]cc(CCc3ccc(C(=O)N[C@@H](CCC(=O)O)C(=O)O)cc3)c2c(=O)[nH]1 [PTX, pemetrexed]",fold changes relative to vehicle control,[19],0.95
same,Ki,[20],0.29 ± 0.02 µM
same,Ki,[21],20.5 µM
"Nc1nc2c(c(=O)[nH]1)N(C=O)C(CNc1ccc(C(=O)N[C@@H](CCC(=O)O)C(=O)O)cc1)CN2 (stereo partly drawn) [LEU, leucovorin]",fold changes relative to vehicle control,"[19]; protein THOP1, HeLa",0.87
